Tests used:
[1] = test system: HIV-TCM; test: annexin V / propidium iodide flow cytometry, HIV-TCM; type: cell-based, human; conditions: LCL161, Supplementary Fig. 8
[2] = cited from earlier work
[3] = test system: RIPK1; test: RIPK1 ubiquitination and Ser166 phosphorylation; type: cell-based, human; conditions: 100 nM LCL161, 5 min (ubiquitination) or 4 h; n = 4
[4] = test system: FAS DISC in TCM; test: FAS DISC coimmunoprecipitation, TCM; type: cell-based, human; conditions: 100 nM LCL161, 4 h, co-IP, n = 4
[5] = test system: human glioma LN18 cells; test: MTT survival assay, LN18; type: cell-based; conditions: LCL161 and/or TNF, 24 h, three independent biological replicates
[6] = test system: caspase-3 and PARP1 in HIV-TCM; test: western blot of caspase-3 and PARP1, HIV-TCM; type: cell-based, human; conditions: 100 nM LCL161, 4 h, n = 4
[7] = test system: HIV-TCM; test: Cell Death Detection ELISA, HIV-TCM; type: cell-based, human; conditions: LCL161, 4 h, n = 4
[8] = test system: HIV-TCM; test: HIV-1 p24 antigen release; type: cell-based; conditions: Supplementary Fig. 7c,d
[9] = test system: TCM; test: apoptosis / cell death read-outs, uninfected TCM; type: cell-based, human; conditions: LCL161, 4 h
[10] = test system: HIV-TCM; test: LDH release assay, HIV-TCM; type: cell-based, human; conditions: LCL161, 4 h, n = 4
[11] = test system: BIRC2 and BIRC3 in TCM; test: western blot of BIRC2 and BIRC3, uninfected TCM; type: cell-based, human; conditions: uninfected cells (TCM), 100 nM LCL161, 4 h; n = 4
[12] = test system: BIRC2 and BIRC3 in HIV-TCM; test: western blot of BIRC2 and BIRC3, HIV-TCM; type: cell-based, human; conditions: 100 nM LCL161, 4 h, n = 4
[13] = test system: mouse embryonic fibroblasts (MEFs); test: MTT survival assay, MEF; type: cell-based; conditions: LCL161 and/or TNF, 24 h, three independent biological replicates
[14] = test system: cancer cells; conditions: cited from earlier work
[15] = test system: IFNγ stimulated ex vivo differentiated monocyte-derived macrophages; test: cytokine antibody array, macrophages; type: cell-based, human; conditions: 10 μM embelin, IFNγ 24 h, supernatants; array in duplicate
[16] = target: BIRC2BIR3 (Homo sapiens, UniProt Q13490); test: X-ray crystal structure of BIRC2BIR3 complex; type: binding; conditions: Supplementary Fig. 2
[17] = test system: D320A and E325A mutants of BIRC2BIR3; test: NMR and pulldown, BIRC2BIR3 D320A and E325A mutants; type: binding, human; conditions: NMR and pulldown (performed twice)
[18] = test system: BIRC2_3BIR D234A/D320A; test: pulldown, BIRC2_3BIR D234A/D320A; type: binding, human; conditions: D234A/D320A concurrently, performed twice
[19] = test system: D234A and E239A mutants of BIRC2BIR2; test: NMR and pulldown, BIRC2BIR2 D234A and E239A mutants; type: binding, human; conditions: NMR and pulldown (performed twice)

Chain of BIRC2BIR3 (Q13490 261-346): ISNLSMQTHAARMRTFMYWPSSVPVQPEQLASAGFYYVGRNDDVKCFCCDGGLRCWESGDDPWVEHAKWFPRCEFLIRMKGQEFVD

Molecule: CN[C@@H](C)C(=O)N[C@H](C(=O)N1CCC[C@H]1c1nc(C(=O)c2ccc(F)cc2)cs1)C1CCCCC1 [LCL161]
- phosphatidylserine translocation [1]: translocation of phosphatidylserine from the inner to the outer leaflet
- plasma membrane permeabilization [1]: permeabilization of the plasma membrane
- antiproliferation and bioavailability properties ([2]; among SMAC mimetic compounds): one of the most promising antiproliferation and bioavailability properties
- pharmacological properties [2]: favorable pharmacological properties
- toxicity [2]: minor toxicity
- RIPK1 deubiquitination, phosphorylation and activation [3]: deubiquitination and Ser166 phosphorylation and thus activation of RIPK1
- association of FADD, cFLIPS and Ser166 phosphorylated RIPK1 with FAS [4]: did not associate with FAS
- sensitization to killing by TNF [5]: sensitized mouse embryonic fibroblasts (MEFs) and human glioma LN18 cells to killing by TNF
- caspase-3 cleavage [6]: cleavage of caspase-3
- cytoplasmic histone-associated DNA fragments [7]: increase in cytoplasmic histone-associated DNA fragments
- HIV-1 p24 antigen release [8]: not accompanied by an increase in HIV-1 p24 antigen release
- apoptosis / LDH release in uninfected cells [9]: not in the uninfected cells
- LDH release [10]: increase in lactate dehydrogenase (LDH) release
- degradation of BIRC2 and BIRC3 [11]: induced the rapid degradation of BIRC2 and BIRC3
- degradation of BIRC2 and BIRC3 [12]: induced the rapid degradation of BIRC2 and BIRC3
- sensitization to killing by TNF [13]: sensitized mouse embryonic fibroblasts (MEFs) and human glioma LN18 cells to killing by TNF
- anticancer activity ([14]; at least two dozen tumor types): potent anticancer activity in at least two dozen tumor types
- sensitization of cancer cells to chemotherapy ([14]; with cisplatin and vincristine): sensitizes cancer cells to conventional chemotherapy with cisplatin and vincristine

Molecule: CCCCCCCCCCCC1=C(O)C(=O)C=C(O)C1=O [embelin]
- interleukin-6 (IL-6) level [15]: increase of interleukin-6 (IL-6)

Molecule: ATPF [caspase-9]
- binding site in overlay of structures [16]: occupy the same binding site of BIRC2BIR3

Molecule: AVPI [SMAC]
- binding site in overlay of structures [16]: occupy the same binding site of BIRC2BIR3

Molecule: H3: N terminus of H3 (residues 1–22 of H3), histone peptide in pulldowns
- binding to mutant domain [17]: abrogated binding
- binding to double mutant of triple BIR [18]: disrupt binding
- binding to mutant domain [19]: abrogated binding

Molecule: H3T3ph: H3 peptide with phosphorylation of Thr3
- binding to mutant domain [17]: abrogated binding
- binding to mutant domain [19]: abrogated binding
